Laboratory results from patent US10858360B2, “Tricyclic gyrase inhibitors” (priority 2011, dated 2020).
Values after ≈ are worked out from the molar mass of the structure shown. Where two headings read alike, the source gives them in different places.

Columns and labels:
S. aureus ATCC 13709 = test: MIC, S. aureus ATCC 13709 (Alamar Blue broth microdilution); format: cell-based; settings: for MIC: Staphylococcus aureus, ATCC13709, S. aureus
E. coli ATCC 25922 = test: MIC, E. coli ATCC 25922; format: cell-based; settings: for MIC: Escherichia coli, ATCC25922, E. coli
[1] = Alamar Blue read after overnight incubation at 35° C.
[2] = S. aureus, Alamar Blue read after overnight incubation at 35° C.
[3] = E. coli, Alamar Blue read after overnight incubation at 35° C.

Structure (SMILES) | MIC (S. aureus ATCC 13709; [1]) [µg/mL] | MIC (E. coli ATCC 25922; [1]) [µg/mL] | MIC Sa (S. aureus ATCC 13709; [2]) [µg/mL] | MIC Ec (E. coli ATCC 25922; [3]) [µg/mL] | also measured
CNc1cc(F)cc2c1[nH]c1nc(Oc3cnc4cccnc4c3)nc(N3C[C@H](N)C4(CC4)C3)c12 [4.038] | ≤ 0.5 | ≤ 0.5 | – | – | –
CNc1cccc2c1[nH]c1nc(Sc3cnc4ccc[n+]([O-])c4c3)nc(N3CC(CN)C3)c12 [1.20] | 4 (≈ 8.72 µM) | 16 (≈ 34.9 µM) | – | – | –
CNc1cc(F)cc2c1[nH]c1nc(Oc3cncc(C#N)c3)nc(N3CC4(CCC4N)C3)c12 (centres unmarked) [4.054] | – | – | ≤0.5 | ≤0.5 | –
CNc1cc(F)cc2c1[nH]c1nc(Oc3ccc4c(c3)C(=O)NC43CC3)nc(N3CC4CC(N)C4C3)c12 (centres unmarked) [4.381] | – | – | 4 (≈ 8.01 µM) | 16 (≈ 32 µM) | –
CNc1cccc2c1[nH]c1nc(Oc3ccc[n+]([O-])c3)nc(N3CC4C(N)C4C3)c12 (centres unmarked) [3.30] | 16 (≈ 39.7 µM) | 16 (≈ 39.7 µM) | – | – | –
CCOC(=O)C1CN(c2nc(Oc3cnc(C)nc3)nc3[nH]c4c(NC)cc(F)cc4c23)CC1N (centres unmarked) [4.140] | – | – | ≤0.5 | 2 (≈ 4.16 µM) | –
CNc1cc(F)cc2c1[nH]c1nc(Oc3cnc(N4CCOCC4)nc3)nc(N3CC4C(N)C4C3)c12 (centres unmarked) [4.211] | – | – | 16 (≈ 32.6 µM) | >16 | –
CNc1cc(F)cc2c1[nH]c1nc(Oc3cnc4ccoc4c3)nc(N3CC(N)C4(CC4)C3)c12 (centres unmarked) [4.292] | – | – | ≤0.5 | ≤0.5 | –
CNc1cc(F)cc2c1[nH]c1nc(Oc3cnc(SC)nc3)nc(N3CC4C(N)C4C3)c12 (centres unmarked) [4.193] | ≤ 0.5 | ≤ 0.5 | – | – | –
CNc1cc(F)cc2c1[nH]c1nc(Oc3cncc(C#N)c3)nc(N3CCC4(CC4N)C3)c12 (centres unmarked) [4.052] | ≤ 0.5 | ≤ 0.5 | – | – | –
CNc1cc(F)c(F)c2c1[nH]c1nc(Oc3cnc(C)nc3)nc(N3CC(N)C3)c12 [5.06] | – | – | ≤0.5 | ≤0.5 | –
CNc1cc(F)cc2c1[nH]c1nc(Oc3cnc(C)nc3)nc(N3CC(N)C(C(=O)N4CCOCC4)C3)c12 (centres unmarked) [4.438] | 1 (≈ 1.92 µM) | 16 (≈ 30.7 µM) | – | – | –
CNc1cc(F)cc2c1[nH]c1nc(Oc3ccc4sc(N)nc4c3)nc(N3C[C@H]4CC[C@@H](N)[C@H]4C3)c12 [4.335] | ≤ 0.5 | 4 (≈ 7.93 µM) | – | – | –
CNc1cc(F)cc2c1[nH]c1nc(Oc3ccc(C#N)nc3)nc(N3CC4(CCC4N)C3)c12 (centres unmarked) [4.333] | – | – | ≤0.5 | ≤0.5 | –
CNc1cc(F)cc2c1[nH]c1nc(Oc3ccc4nc[nH]c(=O)c4c3)nc(N3CC4C(N)C4C3)c12 (centres unmarked) [4.231] | – | – | ≤0.5 | 2 (≈ 4.23 µM) | –
CNc1cc(Cl)cc2c1[nH]c1nc(Oc3cnc(N)nc3)nc(N3CC4CC(N)C4C3)c12 (centres unmarked) [6.16] | – | – | – | – | MIC Sa (S. aureus ATCC 13709): ≤0.5 µg/mL; MIC Ec (E. coli ATCC 25922): 1 µg/mL (≈ 2.21 µM)

Structure (SMILES) | MIC (S. aureus ATCC 13709; [1]) [µg/mL] | MIC (E. coli ATCC 25922; [1]) [µg/mL] | MIC Sa (S. aureus ATCC 13709; [2]) [µg/mL] | MIC Ec (E. coli ATCC 25922; [3]) [µg/mL] | also measured
CNc1cccc2c1[nH]c1nc(Sc3cnc4cccnc4c3)nc(N3CC4CCCNC4C3)c12 (centres unmarked) [1.28] | 4 (≈ 8.29 µM) | 16 (≈ 33.2 µM) | – | – | –
CNc1cc(F)cc2c1[nH]c1nc(Oc3cnc(C#N)c(C)c3)nc(N3CC4CC(N)C4C3)c12 (centres unmarked) [4.323] | – | – | ≤0.5 | 1 (≈ 2.18 µM) | –
CNc1cc(F)cc2c1[nH]c1nc(Sc3cnc4ccc[n+]([O-])c4c3)nc(N3CC(N)C4(CC4)C3)c12 (centres unmarked) [1.63] | ≤ 0.5 | ≤ 0.5 | – | – | –
CNc1cc(F)cc2c1[nH]c1nc(Sc3cnc4cccnc4c3)nc(N3CC4C(N)C4C3)c12 (centres unmarked) [1.51] | ≤ 0.5 | ≤ 0.5 | – | – | –
CNc1cc(F)cc2c1[nH]c1nc(Oc3ccc4c(c3)C(=O)NC4)nc(N3CC4(CCC4N)C3)c12 (centres unmarked) [4.270] | – | – | ≤0.5 | 2 (≈ 4.22 µM) | –
CNc1cc(F)cc2c1[nH]c1nc(Oc3cnc(N)nc3)nc(N3CC(N)C4(CC4)C3)c12 (centres unmarked) [4.177] | – | – | ≤0.5 | ≤0.5 | –
CNc1cc(F)cc2c1[nH]c1nc(Oc3cncc(C#N)c3)nc(N3CC4C(N)C4C3)c12 (centres unmarked) [4.050] | ≤ 0.5 | ≤ 0.5 | – | – | –
CNc1cc(F)cc2c1[nH]c1nc(Oc3cnc(C)nc3)nc(N3CC4CC(N)C3C4)c12 (centres unmarked) [4.148] | ≤ 0.5 | 4 (≈ 9.21 µM) | – | – | –
CNc1cc(F)cc2c1[nH]c1nc(Oc3cnc(C(C)(C)C)nc3)nc(N3CC[C@@H](N)C3)c12 [4.319] | ≤ 0.5 | ≤ 0.5 | – | – | –
CNc1cccc2c1[nH]c1nc(Oc3ccc(C(=O)O)nc3)nc(N3CC4C(N)C4C3)c12 (centres unmarked) [3.22] | 16 (≈ 37.1 µM) | 64 (≈ 148 µM) | – | – | –
CNc1cc(F)cc2c1[nH]c1nc(Oc3cnc(N)nc3)nc(N3CC4CNC(C4)C3)c12 (centres unmarked) [4.175] | ≤ 0.5 | 8 (≈ 18.4 µM) | – | – | –
CNc1cc(F)cc2c1[nH]c1nc(Oc3cnc(N4CCOCC4)nc3)nc(N3CC(N)C4(CC4)C3)c12 (centres unmarked) [4.213] | – | – | ≤0.5 | 1 (≈ 1.98 µM) | –
CNc1cc(F)cc2c1[nH]c1nc(Oc3cnc(C4CC4)nc3)nc(N3CC4C[C@@H](N)C4C3)c12 (some centres unmarked) [4.254] | ≤ 0.5 | ≤ 0.5 | – | – | –
CNc1cc(F)cc2c1[nH]c1nc(Oc3cncnc3)nc(N3CC4C(N)C4C3)c12 (centres unmarked) [4.010] | – | – | ≤0.5 | ≤0.5 | –
CNc1cc(F)cc2c1[nH]c1nc(Oc3cncc(Cl)c3)nc(N3CC4C(N)C4C3)c12 (centres unmarked) [4.272] | ≤ 0.5 | ≤ 0.5 | – | – | –
